Measurements reported in article PMC7506137, “Selective Phosphodiesterase 1 Inhibitor BTTQ Reduces Blood Pressure in Spontaneously Hypertensive and Dahl Salt Sensitive Rats: Role of Peripheral Vasodilation” (Frontiers in Physiology, 2020).
pIC50: −log10 of the molar value.

Test system: PDE1
Assay: Calculated target engagement from unbound drug concentration
Assay type: in vivo, Rat
Details: for % TE: 1 h, hill slope 1

pIC50 (IC50 used for the target engagement calculation): 8.86
Structure (SMILES): O=c1c2nnc(C3(C4CC4)CC3)n2c2c(n1CC1CC1)CCCC2 [BTTQ, 1-[1,1′-bi(cyclopropyl)-1-yl]-5-(cyclopropylmethyl)-6,7,8,9-tetrahydro[1,2,4]triazolo[4,3-A]quinoxaline-4(5H)-one]
% TE (dose 0.1 (mg/kg oral)): 88.55% | % TE (dose 0.3 (mg/kg oral)): 95.29% | % TE (dose 1 (mg/kg oral)): 98.54% | % TE (dose 3 (mg/kg oral)): 99.31%
